Test results from ChEMBL document CHEMBL5058647, “Data for DCP probe JNJ-9350” (2022).
Several values for one entry are separate records, joined by “and”; a condition that tells them apart may be missing. Equal entries are not always repeated. Activity calls are given as the source filed them. No cut-off for these calls is given here.

Legend:
[1] = target: Sodium-dependent dopamine transporter (Homo sapiens, UniProt Q01959); settings: Compound concentration 10.0 uM
[2] = target: Adenosine receptor A3 (Homo sapiens) (UniProt P0DMS8); experiment: A3 (h) CEREP ligand profiling; settings: filed as agonist, Compound concentration 10.0 uM
Rattus norvegicus = species on record: Rattus norvegicus; settings: Compound concentration 10.0 uM
[3] = target: T1, Kappa-type opioid receptor (Homo sapiens, UniProt P41145); settings: Compound concentration 10.0 uM
[4] = target: Muscarinic acetylcholine receptor M3 (Homo sapiens) (UniProt P20309); settings: Compound concentration 10.0 uM
[5] = target: D(1B) dopamine receptor (Homo sapiens) (UniProt P21918); settings: Compound concentration 10.0 uM
[6] = target: T2, 5-hydroxytryptamine receptor 1D (Homo sapiens, UniProt P28221); settings: Compound concentration 10.0 uM
[7] = target: 5-hydroxytryptamine receptor 2A (Homo sapiens) (UniProt P28223); experiment: 5-HT2A (h) CEREP ligand profiling; settings: filed as agonist, Compound concentration 10.0 uM
[8] = target: 5-hydroxytryptamine receptor 2A (Homo sapiens) (UniProt P28223); settings: Compound concentration 10.0 uM
[9] = target: Cholecystokinin receptor type A (Homo sapiens) (UniProt P32238); experiment: CCK1 (CCKA) (h) CEREP ligand profiling; settings: filed as agonist, Compound concentration 10.0 uM
[10] = target: T3, 5-hydroxytryptamine receptor 2B (Homo sapiens, UniProt P41595); settings: Compound concentration 10.0 uM
[11] = target: Alpha-2B adrenergic receptor (Homo sapiens, UniProt P18089); experiment: GPCRScan assay: inhibition of Alpha2B; set-up: radioligand conc. used [nm] 1.5 – 2.0, parental cells HEKT
[12] = target: Alpha-2A adrenergic receptor (Homo sapiens) (UniProt P08913); settings: Compound concentration 10.0 uM
[13] = target: Alpha-2A adrenergic receptor (Homo sapiens, UniProt P08913); experiment: GPCRScan assay: inhibition of Alpha2A; set-up: radioligand conc. used [nm] 1.0 – 3.0, parental cells stable MDCK
[14] = target: 5-hydroxytryptamine receptor 1E (Homo sapiens) (UniProt P28566); settings: Compound concentration 10.0 uM
[15] = target: 5-hydroxytryptamine receptor 2C (Homo sapiens) (UniProt P28335); settings: Compound concentration 10.0 uM
[16] = target: T4, Sigma intracellular receptor 2 (Homo sapiens, UniProt Q5BJF2); settings: Compound concentration 10.0 uM
[17] = target: Alpha-2B adrenergic receptor (Homo sapiens) (UniProt P18089); settings: Compound concentration 10.0 uM
[18] = target: 5-hydroxytryptamine receptor 5A (Homo sapiens) (UniProt P47898); settings: Compound concentration 10.0 uM
[19] = target: T2, 5-hydroxytryptamine receptor 1D; experiment: GPCRScan assay: inhibition of 5-HT1D; set-up: radioligand conc. used [nm] 1.0 – 2.0, parental cells HEKT
[20] = target: 5-hydroxytryptamine receptor 7 (Homo sapiens) (UniProt P34969); settings: Compound concentration 10.0 uM
[21] = GPCRScan assay: inhibition of GABA/PBR; set-up: species or system Rattus norvegicus; radioligand conc. used [nm] 0.3 – 2.0, parental cells brain tissue
[22] = target: Histamine H4 receptor (Homo sapiens) (UniProt Q9H3N8); settings: Compound concentration 10.0 uM
Spermine oxidase [23] = target: T5, Spermine oxidase (Homo sapiens, UniProt Q9NWM0); experiment: SMOX CETSA assay
[24] = target: Adenosine receptor A2a (Homo sapiens) (UniProt P29274); experiment: A2A (h CEREP ligand profiling; settings: filed as agonist, Compound concentration 10.0 uM
[25] = target: Mu-type opioid receptor (Homo sapiens) (UniProt P35372); settings: Compound concentration 10.0 uM
Homo sapiens = species on record: Homo sapiens; experiment: sigma (non-selective) (h) CEREP ligand profiling; settings: filed as agonist, Compound concentration 10.0 uM
[26] = target: Beta-1 adrenergic receptor (Homo sapiens) (UniProt P08588); settings: Compound concentration 10.0 uM
[27] = target: Peroxisomal N(1)-acetyl-spermine/spermidine oxidase (Homo sapiens, UniProt Q6QHF9); experiment: HyPerBlu POAX enzymatic assay
Spermine oxidase [28] = target: T5, Spermine oxidase; experiment: Horseradish Peroxidase (HRP) Fluorescence Assay
[29] = target: Histamine H2 receptor (Homo sapiens) (UniProt P25021); settings: Compound concentration 10.0 uM
[30] = target: Alpha-1A adrenergic receptor (Homo sapiens) (UniProt P35348); settings: Compound concentration 10.0 uM
[31] = target: T6, 5-hydroxytryptamine receptor 1B (Homo sapiens, UniProt P28222); experiment: GPCRScan assay: inhibition of 5-HT1B; set-up: radioligand conc. used [nm] 0.6 – 1.5, parental cells stable HEK
[32] = target: Histamine H3 receptor (Homo sapiens) (UniProt Q9Y5N1); settings: Compound concentration 10.0 uM
[33] = target: D(2) dopamine receptor (Homo sapiens) (UniProt P14416); settings: Compound concentration 10.0 uM
[34] = target: Alpha-2C adrenergic receptor (Homo sapiens) (UniProt P18825); settings: Compound concentration 10.0 uM
[35] = target: T7, Muscarinic acetylcholine receptor M4 (Homo sapiens) (UniProt P08173); experiment: M4 (h) CEREP ligand profiling; settings: filed as antagonist, Compound concentration 10.0 uM
T7 sequence (whole entry): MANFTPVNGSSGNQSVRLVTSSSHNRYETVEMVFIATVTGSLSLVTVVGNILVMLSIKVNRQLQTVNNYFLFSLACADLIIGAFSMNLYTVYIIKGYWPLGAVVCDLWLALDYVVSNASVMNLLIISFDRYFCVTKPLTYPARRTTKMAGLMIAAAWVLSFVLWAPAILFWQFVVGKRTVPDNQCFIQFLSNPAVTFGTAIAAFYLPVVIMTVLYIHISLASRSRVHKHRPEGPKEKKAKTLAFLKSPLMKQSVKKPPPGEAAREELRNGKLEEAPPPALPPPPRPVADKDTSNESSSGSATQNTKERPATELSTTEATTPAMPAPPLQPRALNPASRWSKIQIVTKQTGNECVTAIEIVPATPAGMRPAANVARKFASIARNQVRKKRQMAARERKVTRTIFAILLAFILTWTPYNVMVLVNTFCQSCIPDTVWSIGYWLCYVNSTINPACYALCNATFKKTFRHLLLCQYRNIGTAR

[36] = target: T1, Kappa-type opioid receptor; experiment: kappa (h) (KOP) CEREP ligand profiling; settings: filed as agonist, Compound concentration 10.0 uM
[37] = target: Muscarinic acetylcholine receptor M2 (Homo sapiens) (UniProt P08172); settings: Compound concentration 10.0 uM
[38] = target: Delta-type opioid receptor (Homo sapiens) (UniProt P41143); settings: Compound concentration 10.0 uM
[39] = target: Lysine-specific histone demethylase 1A (Homo sapiens, UniProt O60341); experiment: HyPerBlu KDM1A enzymatic assay
[40] = target: T6, 5-hydroxytryptamine receptor 1B; settings: Compound concentration 10.0 uM
[41] = target: Sodium-dependent serotonin transporter (Homo sapiens) (UniProt P31645); settings: Compound concentration 10.0 uM
[42] = target: 5-hydroxytryptamine receptor 3A (Homo sapiens) (UniProt P46098); settings: Compound concentration 10.0 uM
[43] = target: T1, Kappa-type opioid receptor; experiment: GPCRScan assay: inhibition of KOR; set-up: radioligand conc. used [nm] 0.6 – 1.2, parental cells stable HEK
[44] = target: Beta-3 adrenergic receptor (Homo sapiens) (UniProt P13945); settings: Compound concentration 10.0 uM
[45] = target: Beta-2 adrenergic receptor (Homo sapiens) (UniProt P07550); settings: Compound concentration 10.0 uM
[46] = target: Substance-K receptor (Homo sapiens) (UniProt P21452); experiment: NK2 (h) CEREP ligand profiling; settings: filed as agonist, Compound concentration 10.0 uM
[47] = target: Alpha-1D adrenergic receptor (Homo sapiens) (UniProt P25100); settings: Compound concentration 10.0 uM
[48] = target: Melatonin receptor type 1A (Homo sapiens) (UniProt P48039); experiment: MT1 (ML1A) (h) CEREP ligand profiling; settings: filed as agonist, Compound concentration 10.0 uM
[49] = target: Sigma non-opioid intracellular receptor 1 (Homo sapiens) (UniProt Q99720); settings: Compound concentration 10.0 uM
[50] = target: T7, Muscarinic acetylcholine receptor M4 (Homo sapiens); settings: Compound concentration 10.0 uM
D(3) dopamine receptor = D(3) dopamine receptor (Homo sapiens, UniProt P35462); settings: Compound concentration 10.0 uM
[51] = target: Alpha-1B adrenergic receptor (Homo sapiens) (UniProt P35368); settings: Compound concentration 10.0 uM
[52] = target: T3, 5-hydroxytryptamine receptor 2B; experiment: 5-HT2B (h) CEREP ligand profiling; settings: filed as agonist, Compound concentration 10.0 uM
[53] = target: Histamine H1 receptor (Homo sapiens) (UniProt P35367); settings: Compound concentration 10.0 uM
[54] = target: T4, Sigma intracellular receptor 2; experiment: GPCRScan assay: inhibition of Sigma 2; set-up: radioligand conc. used [nm] 5.0, parental cells HEKT
[55] = target: T3, 5-hydroxytryptamine receptor 2B; experiment: GPCRScan assay: inhibition of 5-HT2B; set-up: radioligand conc. used [nm] 1.0 – 2.0, parental cells stable HEK
[56] = target: 3',5'-cyclic-AMP phosphodiesterase 4D (Homo sapiens) (UniProt Q08499); experiment: PDE4D2 (h) CEREP ligand profiling; settings: Compound concentration 10.0 uM
[57] = target: Muscarinic acetylcholine receptor M1 (Homo sapiens) (UniProt P11229); settings: Compound concentration 10.0 uM
[58] = target: 5-hydroxytryptamine receptor 1A (Homo sapiens) (UniProt P08908); settings: Compound concentration 10.0 uM
[59] = target: Sodium-dependent noradrenaline transporter (Homo sapiens) (UniProt P23975); settings: Compound concentration 10.0 uM
[60] = target: Adenosine receptor A1 (Homo sapiens) (UniProt P30542); experiment: A1 (h) CEREP ligand profiling; settings: filed as antagonist, Compound concentration 10.0 uM
[61] = target: T6, 5-hydroxytryptamine receptor 1B; experiment: 5-HT1B (h) CEREP ligand profiling; settings: filed as antagonist, Compound concentration 10.0 uM
[62] = target: D(4) dopamine receptor (Homo sapiens) (UniProt P21917); settings: Compound concentration 10.0 uM
[63] = target: D(1A) dopamine receptor (Homo sapiens) (UniProt P21728); settings: Compound concentration 10.0 uM
[64] = target: Muscarinic acetylcholine receptor M5 (Homo sapiens) (UniProt P08912); settings: Compound concentration 10.0 uM

T2 sequence (P28221 whole entry): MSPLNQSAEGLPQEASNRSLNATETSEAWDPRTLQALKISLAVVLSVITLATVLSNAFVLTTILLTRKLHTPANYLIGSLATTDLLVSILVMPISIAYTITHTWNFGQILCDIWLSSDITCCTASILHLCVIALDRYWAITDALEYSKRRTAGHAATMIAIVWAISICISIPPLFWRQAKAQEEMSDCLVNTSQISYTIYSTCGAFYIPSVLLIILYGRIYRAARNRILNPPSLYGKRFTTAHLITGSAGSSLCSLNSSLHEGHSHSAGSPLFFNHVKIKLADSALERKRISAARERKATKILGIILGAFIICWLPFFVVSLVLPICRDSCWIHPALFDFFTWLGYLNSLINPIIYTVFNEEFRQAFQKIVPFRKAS
T6 sequence (P28222 whole entry): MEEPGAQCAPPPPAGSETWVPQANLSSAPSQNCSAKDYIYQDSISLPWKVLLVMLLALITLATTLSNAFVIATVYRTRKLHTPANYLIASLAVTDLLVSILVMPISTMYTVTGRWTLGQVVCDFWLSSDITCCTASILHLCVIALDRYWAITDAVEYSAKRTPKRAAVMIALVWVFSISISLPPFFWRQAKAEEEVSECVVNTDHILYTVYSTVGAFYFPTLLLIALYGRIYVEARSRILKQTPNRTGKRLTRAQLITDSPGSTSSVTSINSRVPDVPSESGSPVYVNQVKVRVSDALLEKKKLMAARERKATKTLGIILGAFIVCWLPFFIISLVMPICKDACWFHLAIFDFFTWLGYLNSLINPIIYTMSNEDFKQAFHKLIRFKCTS
T1 sequence (P41145 whole entry): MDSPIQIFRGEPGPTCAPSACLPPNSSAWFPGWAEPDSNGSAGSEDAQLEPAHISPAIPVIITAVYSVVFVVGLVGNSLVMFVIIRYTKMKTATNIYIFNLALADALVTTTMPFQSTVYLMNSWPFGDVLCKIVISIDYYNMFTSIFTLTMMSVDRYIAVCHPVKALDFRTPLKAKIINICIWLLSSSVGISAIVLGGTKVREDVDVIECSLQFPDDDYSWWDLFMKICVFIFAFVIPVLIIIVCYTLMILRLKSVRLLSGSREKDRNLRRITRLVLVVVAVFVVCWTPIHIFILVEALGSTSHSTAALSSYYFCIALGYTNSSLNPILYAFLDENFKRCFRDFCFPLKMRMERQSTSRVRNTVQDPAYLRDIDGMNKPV
T3 sequence (P41595 whole entry): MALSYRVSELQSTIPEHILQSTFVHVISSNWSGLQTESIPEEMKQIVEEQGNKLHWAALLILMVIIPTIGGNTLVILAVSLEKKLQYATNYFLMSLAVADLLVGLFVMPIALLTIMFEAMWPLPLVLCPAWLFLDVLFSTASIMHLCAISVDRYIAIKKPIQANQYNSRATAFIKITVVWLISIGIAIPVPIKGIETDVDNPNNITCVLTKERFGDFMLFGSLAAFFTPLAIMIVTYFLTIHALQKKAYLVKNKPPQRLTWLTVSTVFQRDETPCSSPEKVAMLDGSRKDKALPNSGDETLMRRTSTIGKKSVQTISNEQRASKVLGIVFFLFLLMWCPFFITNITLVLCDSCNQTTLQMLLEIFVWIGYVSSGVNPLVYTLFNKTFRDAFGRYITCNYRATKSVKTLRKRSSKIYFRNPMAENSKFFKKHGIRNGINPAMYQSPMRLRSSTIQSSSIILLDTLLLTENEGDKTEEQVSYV
T4 sequence (Q5BJF2 whole entry): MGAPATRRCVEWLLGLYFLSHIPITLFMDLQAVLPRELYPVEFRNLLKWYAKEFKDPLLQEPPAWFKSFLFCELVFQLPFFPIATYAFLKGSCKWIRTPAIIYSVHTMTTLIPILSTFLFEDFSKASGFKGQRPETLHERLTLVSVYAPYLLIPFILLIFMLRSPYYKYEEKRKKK
Chain of 5-hydroxytryptamine receptor 2A (Homo sapiens) (P28223 whole entry): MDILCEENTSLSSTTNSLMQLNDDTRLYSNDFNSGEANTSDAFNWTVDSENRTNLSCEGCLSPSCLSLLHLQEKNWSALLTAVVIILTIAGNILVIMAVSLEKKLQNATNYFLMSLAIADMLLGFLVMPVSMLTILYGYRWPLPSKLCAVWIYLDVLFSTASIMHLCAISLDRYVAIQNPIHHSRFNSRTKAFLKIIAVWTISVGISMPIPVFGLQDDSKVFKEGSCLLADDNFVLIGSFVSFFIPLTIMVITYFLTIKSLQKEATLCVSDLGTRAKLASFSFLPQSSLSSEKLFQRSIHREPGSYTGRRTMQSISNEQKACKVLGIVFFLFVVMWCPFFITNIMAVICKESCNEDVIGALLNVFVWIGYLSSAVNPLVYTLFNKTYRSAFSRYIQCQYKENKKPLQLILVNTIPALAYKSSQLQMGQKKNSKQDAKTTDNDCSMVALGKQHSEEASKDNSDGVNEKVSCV
T5 sequence (Q9NWM0 whole entry): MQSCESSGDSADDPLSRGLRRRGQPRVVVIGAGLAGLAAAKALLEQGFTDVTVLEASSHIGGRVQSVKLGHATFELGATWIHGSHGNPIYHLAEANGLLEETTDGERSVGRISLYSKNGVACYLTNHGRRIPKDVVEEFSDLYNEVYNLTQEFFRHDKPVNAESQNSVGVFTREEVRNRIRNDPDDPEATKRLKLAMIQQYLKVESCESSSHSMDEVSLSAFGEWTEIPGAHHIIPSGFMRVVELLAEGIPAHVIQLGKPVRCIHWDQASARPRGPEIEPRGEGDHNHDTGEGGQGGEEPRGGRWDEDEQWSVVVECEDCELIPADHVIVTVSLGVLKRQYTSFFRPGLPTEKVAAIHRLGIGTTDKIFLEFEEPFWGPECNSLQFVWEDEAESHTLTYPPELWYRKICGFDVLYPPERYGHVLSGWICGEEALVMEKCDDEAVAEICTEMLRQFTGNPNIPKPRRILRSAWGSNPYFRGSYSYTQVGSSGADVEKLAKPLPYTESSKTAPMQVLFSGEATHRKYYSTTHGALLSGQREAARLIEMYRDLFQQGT
Chain of Cholecystokinin receptor type A (Homo sapiens) (P32238 whole entry): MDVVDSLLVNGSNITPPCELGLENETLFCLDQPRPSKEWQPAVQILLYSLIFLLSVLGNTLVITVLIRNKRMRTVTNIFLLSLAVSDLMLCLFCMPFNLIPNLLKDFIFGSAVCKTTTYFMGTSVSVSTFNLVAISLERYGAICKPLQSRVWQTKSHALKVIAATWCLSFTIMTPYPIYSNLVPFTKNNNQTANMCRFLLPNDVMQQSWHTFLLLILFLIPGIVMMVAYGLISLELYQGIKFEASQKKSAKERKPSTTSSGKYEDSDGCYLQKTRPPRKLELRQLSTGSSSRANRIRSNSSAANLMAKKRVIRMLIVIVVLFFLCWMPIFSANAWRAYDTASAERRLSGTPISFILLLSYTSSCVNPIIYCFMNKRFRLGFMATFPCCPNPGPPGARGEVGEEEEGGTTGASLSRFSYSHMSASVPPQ
Chain of 5-hydroxytryptamine receptor 2C (Homo sapiens) (P28335 whole entry): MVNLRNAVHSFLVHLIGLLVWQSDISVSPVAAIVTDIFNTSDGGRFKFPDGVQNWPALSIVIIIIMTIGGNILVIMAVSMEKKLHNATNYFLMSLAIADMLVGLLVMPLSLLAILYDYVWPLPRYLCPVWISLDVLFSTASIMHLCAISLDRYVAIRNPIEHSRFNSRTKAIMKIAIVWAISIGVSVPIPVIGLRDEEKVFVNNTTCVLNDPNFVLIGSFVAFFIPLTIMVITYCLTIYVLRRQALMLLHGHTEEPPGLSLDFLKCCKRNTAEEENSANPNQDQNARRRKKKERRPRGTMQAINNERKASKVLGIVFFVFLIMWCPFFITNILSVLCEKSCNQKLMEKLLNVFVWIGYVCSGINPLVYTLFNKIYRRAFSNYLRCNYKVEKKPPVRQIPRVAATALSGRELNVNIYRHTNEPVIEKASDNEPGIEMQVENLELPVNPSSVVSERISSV
Chain of Beta-1 adrenergic receptor (Homo sapiens) (P08588 whole entry, looked up): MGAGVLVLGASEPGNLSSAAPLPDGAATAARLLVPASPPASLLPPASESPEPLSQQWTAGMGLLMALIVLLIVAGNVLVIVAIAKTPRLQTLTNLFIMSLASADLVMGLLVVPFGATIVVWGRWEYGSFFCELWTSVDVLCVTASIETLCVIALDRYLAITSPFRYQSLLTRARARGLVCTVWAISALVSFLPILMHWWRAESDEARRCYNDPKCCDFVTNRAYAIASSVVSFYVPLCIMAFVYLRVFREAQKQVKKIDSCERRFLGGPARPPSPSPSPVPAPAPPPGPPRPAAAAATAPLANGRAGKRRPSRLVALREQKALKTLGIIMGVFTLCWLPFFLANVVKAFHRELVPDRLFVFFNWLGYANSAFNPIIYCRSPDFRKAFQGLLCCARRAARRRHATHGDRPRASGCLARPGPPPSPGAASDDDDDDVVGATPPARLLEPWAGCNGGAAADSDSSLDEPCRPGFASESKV
Chain of Histamine H2 receptor (Homo sapiens) (P25021 whole entry): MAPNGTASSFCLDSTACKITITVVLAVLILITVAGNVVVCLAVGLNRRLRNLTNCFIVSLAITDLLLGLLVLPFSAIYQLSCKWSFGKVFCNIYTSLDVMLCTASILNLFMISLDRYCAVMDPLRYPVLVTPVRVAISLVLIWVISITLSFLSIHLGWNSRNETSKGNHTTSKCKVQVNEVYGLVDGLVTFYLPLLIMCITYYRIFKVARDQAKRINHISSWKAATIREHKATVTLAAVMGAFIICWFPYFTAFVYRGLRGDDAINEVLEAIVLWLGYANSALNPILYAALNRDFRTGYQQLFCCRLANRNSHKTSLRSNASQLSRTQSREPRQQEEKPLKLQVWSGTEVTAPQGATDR
Chain of Histamine H4 receptor (Homo sapiens) (Q9H3N8 whole entry): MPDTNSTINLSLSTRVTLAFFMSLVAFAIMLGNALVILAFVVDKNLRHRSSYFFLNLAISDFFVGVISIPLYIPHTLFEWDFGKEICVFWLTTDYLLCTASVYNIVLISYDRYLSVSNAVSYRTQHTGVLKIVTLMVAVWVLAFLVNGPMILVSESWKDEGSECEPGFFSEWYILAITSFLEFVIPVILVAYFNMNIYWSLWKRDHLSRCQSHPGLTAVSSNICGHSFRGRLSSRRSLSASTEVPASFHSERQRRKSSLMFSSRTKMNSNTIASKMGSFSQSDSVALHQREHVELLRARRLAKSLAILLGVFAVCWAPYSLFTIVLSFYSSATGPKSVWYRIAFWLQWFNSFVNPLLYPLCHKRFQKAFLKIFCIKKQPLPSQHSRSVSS

O=C(NCCCn1ccnc1)c1cc2nc(-c3ccccc3)cc(-c3ccccc3)n2n1
inhibition [1]: 47.7% | inhibition [2]: 75.1% | inhibition (Rattus norvegicus): 114% | inhibition [3]: 73.3% | inhibition [4]: 32% | inhibition [5]: 20.4% | inhibition [6]: 101% | inhibition [7]: 69.9% | inhibition [8]: 27.4% | inhibition [9]: 70.3% | inhibition [10]: 57.9% | Ki [11]: 3.58 µM | inhibition [12]: 64% | Ki [13]: 3.83 µM | inhibition [14]: 0.95% | inhibition [15]: 28.4% | inhibition [16]: 76.7% | inhibition [17]: 42.2% | inhibition [18]: 17.5% | Ki ([19]; read-out: Ki): 318 nM and 219 nM | Ki ([19]; read-out: pKi (converted)): 195 nM | inhibition [20]: 8.26% | Ki [21]: 498 nM | pKi [21]: 6.3 | inhibition [22]: 32.6% | IC50 (Spermine oxidase [23]): 1.2 µM (active) | inhibition [24]: 75% | inhibition [25]: 24.8% | inhibition (Homo sapiens): 62.8% | inhibition [26]: 2.96% | IC50 [27]: 790 nM (not active) | Ki (Spermine oxidase [28]): 9.9 nM (active) | inhibition [29]: 26.9% | inhibition [30]: 3.52% | Ki ([31]; read-out: Ki): 478 nM | Ki ([31]; read-out: pKi (converted)): 407 nM | inhibition [32]: -7.55% | inhibition [33]: 25.3% | inhibition [34]: 20.1% | inhibition [35]: 59.8% | inhibition [36]: 74.1% | inhibition [37]: 24.3% | inhibition [38]: 17.1% | IC50 [39]: > 60 µM (not active) | inhibition [40]: 104% | inhibition [41]: 16.6% | inhibition [42]: 25.6% | Ki [43]: 1170 nM | inhibition [44]: -7.92% | inhibition [45]: -4.5% | inhibition [46]: 56.8% | inhibition [47]: 28.1% | inhibition [48]: 58.8% | inhibition [49]: 30.5% | inhibition [50]: 36.6% | inhibition (D(3) dopamine receptor): 40.5% | inhibition [51]: 10.2% | inhibition [52]: 68.5% | inhibition [53]: 4.87% | Ki [54]: 1920 nM | Ki [55]: 897 nM | inhibition [56]: 63% | inhibition [57]: 24.8% | inhibition [58]: 13.1% | inhibition [59]: 46% | inhibition [60]: 98.9% | inhibition [61]: 62.1% | inhibition [62]: 20.9% | inhibition [63]: 28.9% | inhibition [64]: 37.9%
